Measurements taken from US6960337B2, “Methods and compositions for treating benign gynecological disorders” (Balance Pharmaceuticals, Inc., priority 2002, dated 2005).
Values joined by “and” are separate entries in the source; they are usually repeats but may differ in a detail not shown here. Equal values may be shown once. Read-outs that look alike come from different tables or passages of the source.

Legend:
[1] = test system: ovarian estrogen and progesterone production; assay: Serum hormone levels, 12 week intranasal deslorelin study (Example 2); assay type: in vivo, human
Procedure: Testosterone levels are also similar.
(§1) A 12 week study was performed to establish an effective dose of deslorelin for controlling heavy bleeding secondary to uterine leiomyomata. Forty-one women completed the study and are identified as Subject Nos. 1-41. The women were divided into test groups for treatment with intranasal deslorelin as follows:
(§2) An intranasal preparation consisting of deslorelin at the indicated concentration along with sorbitol (61.6 mg/mL), benzalkonium chloride (0.1 mg/mL), and water was prepared according to the procedure of Example 1. The preparation was administered with a commercially available nasal sprayer that delivered a 50 μL spray volume. The preparation was administered by application of 50 μL to each nostril once per day, for a total daily spray volume of 100 μL to give the indicated dose of deslorelin.
(§3) The average age of the premenopausal patients was 42.3, with similar distribution among groups. For one complete menstrual cycle prior to treatment, each woman completed a daily bleeding calendar. Eligible subjects were then treated with deslorelin at the assigned dosage once per day by intranasal application. During the 12 weeks of daily intranasal administration, each woman kept a daily bleeding calendar, completed quality of life questionnaires, and underwent clinical assessment and laboratory testing. The subjects were tracked for 6 weeks post-treatment for further assessment and to document time to recovery of menses after last drug treatment day. Clinical assessments included grading of nasal irritation (Table 3A), determination of uterine size (Table 3B), and serum hormone levels (Table 3C).

[2] = test system: premenopausal women with uterine leiomyomata; assay: Uterine size (uterine volume calculated from ultrasound dimensions), Example 2; assay type: in vivo, human
Procedure: as §1, §2, §3

[3] = test system: heavy bleeding secondary to uterine leiomyomata; assay: Bleeding score from daily bleeding calendar (sum of 28 day diary entries; 0 no bleeding, 5 normal flow, 10 or greater menorrhagia), Example 2; assay type: in vivo, human
Procedure: as §1, §2, §3

[4] = test system: ovarian suppression (serum estradiol and progesterone levels); assay type: in vivo, human; details: for Hormone Levels: Progesterone: daily, individual subjects
Procedure: Example 4 describes a study performed in support of the invention where the nasal preparation is similar to that of Example 1, comprised of a GnRH compound, estradiol, and testosterone, was administered to healthy, premenopausal women. Three doses of the GnRH compound deslorelin were tested, 0.5 mg, 1.0 mg, and 2.0 mg. The nasal preparation was administered using a conventional metered nasal spray delivery device. The subjects received two 50 μL sprays, one in each nostril, daily for four weeks. Blood samples were collected prior to drug administration on day 1 of the study, and then at regular intervals throughout day 1. Thereafter, blood samples were collected weekly, until day 29, when blood was collected at scheduled intervals throughout the day. Serum deslorelin, estradiol, testosterone, and progesterone were quantified, and the results are shown in Tables 4A through 4C, below in Example 4.
Nine premenopausal women, ages 20 to 45 years, were recruited and randomly divided into three test groups for a 29 day study. […] The single intranasal administration consisted of a 100 μL dose delivered using a metered nasal spray device as two 50 μL sprays, one in each nostril.
An indwelling intravenous catheter was inserted in an arm vein for withdrawal of blood samples prior to drug administration and at defined intervals post administration (study day 1) of 40, 120, 240, and 480 minutes. Thereafter, weekly blood samples (study days 8, 15, and 22) were collected for determination of serum estradiol, progesterone, testosterone, and deslorelin levels. On study day 29 post administration, blood samples were drawn according to the same regimen on study day 1. After collection, all blood samples were allowed to clot at room temperature, then refrigerated. Within 24 hours of collection, serum was separated and stored frozen at −5° C. until assayed.
Serum levels of estradiol, testosterone, and progesterone were quantitated by sensitive and specific radioimmunoassay methods (Stanczyk, F. Z. et al., Am. J Obstet. Gynecol., 159(6):1540 (1988); Scott et al., Am. J Obstet. Gynecol., 130(7):817 (1978)). Prior to assay of the steroid hormones, serum was extracted with ethyl acetate:hexane (1:1) and for the testosterone assay further purified via Celite™ column chromatography, with 40% toluene to elute the testosterone. Procedural losses were followed by addition of 1000 dpm of the appropriate tritiated internal standard. The sensitivities of the estradiol, testosterone, and progesterone assays were 8 pg/mL, 4 ng/dL, and 10 ng/dL, respectively. […] Intra- and inter-assay coefficients of variation were 5% to 10% and 10% to 15%, respectively. Specificity of the assays was enhanced by eliminating interfering metabolites with extraction and/or chromatography and through the use of highly specific antisera.

[5] = cited from earlier work
[6] = 0.5 mg/day intranasal, Baseline
[7] = 0.5 mg/day intranasal, End of Week 4
[8] = 0.5 mg/day intranasal, End of Week 8
[9] = 0.5 mg/day intranasal, End of Week 12
[10] = 1 mg/day intranasal, End of Week 4
[11] = 1 mg/day intranasal, End of Week 8
[12] = 1 mg/day intranasal, End of Week 12
[13] = 2 mg/day intranasal, End of Week 4
[14] = 2 mg/day intranasal, End of Week 8
[15] = 2 mg/day intranasal, End of Week 12
[16] = 0.5-2.0 mg daily intranasal over the 12 week period

With CCNC(=O)[C@@H]1CCCN1C(=O)[C@H](CCCN=C(N)N)NC(=O)[C@H](CC(C)C)NC(=O)[C@@H](Cc1c[nH]c2ccccc12)NC(=O)[C@H](Cc1ccc(O)cc1)NC(=O)[C@H](CO)NC(=O)[C@H](Cc1c[nH]c2ccccc12)NC(=O)[C@H](Cc1cnc[nH]1)NC(=O)[C@@H]1CCC(=O)N1 [deslorelin, (pyro)Pro-His-Trp-Ser-Tyr-DTrp-Leu-Arg-Pro-ethylamide] the “Hormone Levels: Estradiol” value [1, 6] was 173 pg/mL, the “Hormone Levels: Progesterone” value [1, 6] was 641 ng/dL and the “Hormone Levels: Testosterone” value [1, 6] was 24 ng/dL. The “Hormone Levels: Estradiol” value [1, 7] was 47 pg/mL, the “Hormone Levels: Progesterone” value [1, 7] was 40 ng/dL and the “Hormone Levels: Testosterone” value [1, 7] was 19 ng/dL. The “Hormone Levels: Estradiol” value [1, 8] was 79 pg/mL, the “Hormone Levels: Progesterone” value [1, 8] was 30 ng/dL and the “Hormone Levels: Testosterone” value [1, 8] was 22 ng/dL. The “Hormone Levels: Estradiol” value [1, 9] was 66 pg/mL, the “Hormone Levels: Progesterone” value [1, 9] was 37 ng/dL and the “Hormone Levels: Testosterone” value [1, 9] was 23 ng/dL. For the same molecule, the “Hormone Levels: Estradiol” value ([1]; 1 mg/day intranasal, Baseline) was 123 pg/mL, the “Hormone Levels: Progesterone” value ([1]; 1 mg/day intranasal, Baseline) was 480 ng/dL and the “Hormone Levels: Testosterone” value ([1]; 1 mg/day intranasal, Baseline) was 26 ng/dL. The “Hormone Levels: Estradiol” value [1, 10] was 51 pg/mL, the “Hormone Levels: Progesterone” value [1, 10] was 12 ng/dL and the “Hormone Levels: Testosterone” value [1, 10] was 22 ng/dL. For the same molecule, the “Hormone Levels: Estradiol” value [1, 11] was 95 pg/mL, the “Hormone Levels: Progesterone” value [1, 11] was 25 ng/dL and the “Hormone Levels: Testosterone” value [1, 11] was 20 ng/dL. For the same molecule, the “Hormone Levels: Estradiol” value [1, 12] was 30 pg/mL, the “Hormone Levels: Progesterone” value [1, 12] was 10 ng/dL and the “Hormone Levels: Testosterone” value [1, 12] was 16 ng/dL. The “Hormone Levels: Estradiol” value ([1]; 2 mg/day intranasal, Baseline) was 184 pg/mL, the “Hormone Levels: Progesterone” value ([1]; 2 mg/day intranasal, Baseline) was 337 ng/dL and the “Hormone Levels: Testosterone” value ([1]; 2 mg/day intranasal, Baseline) was 34 ng/dL. For the same molecule, the “Hormone Levels: Estradiol” value [1, 13] was 14 pg/mL, the “Hormone Levels: Progesterone” value [1, 13] was 12 ng/dL and the “Hormone Levels: Testosterone” value [1, 13] was 16 ng/dL. The “Hormone Levels: Estradiol” value [1, 14] was 31 pg/mL, the “Hormone Levels: Progesterone” value [1, 14] was 14 ng/dL and the “Hormone Levels: Testosterone” value [1, 14] was 20 ng/dL. The “Hormone Levels: Estradiol” value [1, 15] was 30 pg/mL, the “Hormone Levels: Progesterone” value [1, 15] was 13 ng/dL and the “Hormone Levels: Testosterone” value [1, 15] was 20 ng/dL. The “reduction in serum estradiol levels (summary in words)” value [1, 16] was “progressive and dose dependent”, the “serum progesterone levels (summary in words)” value [1, 16] was “progressive suppression with higher dose and longer time” and the “Uterine Size, Mean Difference (end of week 12 minus baseline uterine volume)” value ([2]; 0.5 mg/day intranasal) was −109.6 cm^3. The “Uterine Size, Mean Difference (end of week 12 minus baseline uterine volume)” value ([2]; 1 mg/day intranasal) was −63.6 cm^3, the “Uterine Size, Mean Difference (end of week 12 minus baseline uterine volume)” value ([2]; 2 mg/day intranasal) was −246.5 cm^3 and the “uterine volume (summary in words)” value ([2]; 0.5, 1.0, 2.0 mg daily intranasal, 12 weeks, said to correlate directly with dose) was “reduction in uterine volume”. For the same molecule, the “Bleeding Score” value ([3]; 0.5 mg/day intranasal, Baseline Score) was 10.9, the “Bleeding Score” value ([3]; 0.5 mg/day intranasal, Weeks 1-4) was 6.6 and the “Bleeding Score” value ([3]; 0.5 mg/day intranasal, Weeks 5-8) was 3.5. For the same molecule, the “Bleeding Score” value ([3]; 0.5 mg/day intranasal, Weeks 9-12) was 2.6, the “Bleeding Score” value ([3]; 1 mg/day intranasal, Baseline Score) was 10.8 and the “Bleeding Score” value ([3]; 1 mg/day intranasal, Weeks 1-4) was 7.8. The “Bleeding Score” value ([3]; 1 mg/day intranasal, Weeks 5-8) was 0.4, the “Bleeding Score” value ([3]; 1 mg/day intranasal, Weeks 9-12) was 1.7 and the “Bleeding Score” value ([3]; 2 mg/day intranasal, Baseline Score) was 14.1. The “Bleeding Score” value ([3]; 2 mg/day intranasal, Weeks 1-4) was 6.6, the “Bleeding Score” value ([3]; 2 mg/day intranasal, Weeks 5-8) was 1.2 and the “Bleeding Score” value ([3]; 2 mg/day intranasal, Weeks 9-12) was 0.6. For the same molecule, the “effectiveness (reduction of bleeding and uterine size), in words” value ([3]; all tested doses (0.5, 1.0, 2.0 mg)) was “partially or completely effective”, the “bleeding score (summary in words)” value ([3]; end of the three month study) was “marked improvement” and the “Hormone Levels: Progesterone” value ([4]; 0.5 mg/mL Deslorelin nasal preparation with estradiol and testosterone, Study Day 1, 0 min) was 100 ng/dL and 90 ng/dL and 110 ng/dL. For the same molecule, the “Hormone Levels: Progesterone” value ([4]; 0.5 mg/mL Deslorelin nasal preparation with estradiol and testosterone, Study Day 8) was 90 ng/dL and 50 ng/dL and 110 ng/dL, the “Hormone Levels: Progesterone” value ([4]; 0.5 mg/mL Deslorelin nasal preparation with estradiol and testosterone, Study Day 15) was 100 ng/dL and 40 ng/dL and the “Hormone Levels: Progesterone” value ([4]; 0.5 mg/mL Deslorelin nasal preparation with estradiol and testosterone, Study Day 22) was 40 ng/dL (2×) and 50 ng/dL. For the same molecule, the “Hormone Levels: Progesterone” value ([4]; 0.5 mg/mL Deslorelin nasal preparation with estradiol and testosterone, Study Day 29, 0 min) was 100 ng/dL and 60 ng/dL and 70 ng/dL, the “Hormone Levels: Progesterone” value ([4]; 1.0 mg/mL Deslorelin nasal preparation with estradiol and testosterone, Study Day 8) was 50 ng/dL (2×) and 80 ng/dL and the “Hormone Levels: Progesterone” value ([4]; 1.0 mg/mL Deslorelin nasal preparation with estradiol and testosterone, Study Day 15) was 50 ng/dL and 30 ng/dL and 70 ng/dL. The “Hormone Levels: Progesterone” value ([4]; 1.0 mg/mL Deslorelin nasal preparation with estradiol and testosterone, Study Day 22) was 50 ng/dL (2×) and 60 ng/dL, the “Hormone Levels: Progesterone” value ([4]; 1.0 mg/mL Deslorelin nasal preparation with estradiol and testosterone, Study Day 29, 0 min) was 60 ng/dL and 40 ng/dL and 100 ng/dL and the “Hormone Levels: Progesterone” value ([4]; 2.0 mg/mL Deslorelin nasal preparation with estradiol and testosterone, Study Day 1, 0 min) was 80 ng/dL and 30 ng/dL and 90 ng/dL. For the same molecule, the “Hormone Levels: Progesterone” value ([4]; 2.0 mg/mL Deslorelin nasal preparation with estradiol and testosterone, Study Day 8) was 50 ng/dL (2×) and 20 ng/dL, the “Progesterone levels during the treatment interval” value ([4]; all three deslorelin doses, generally, indicating that women were anovulatory) was “less than 80 ng/dL” and the “Serum levels of estradiol on day 29” value ([4]; in vivo) was 0.014 to 0.103 ng/mL.

For OC[C@H]1O[C@@H]2O[C@H]3[C@H](O)[C@@H](O)[C@@H](O[C@H]4[C@H](O)[C@@H](O)[C@@H](O[C@H]5[C@H](O)[C@@H](O)[C@@H](O[C@H]6[C@H](O)[C@@H](O)[C@@H](O[C@H]7[C@H](O)[C@@H](O)[C@@H](O[C@H]8[C@H](O)[C@@H](O)[C@@H](O[C@H]9[C@H](O)[C@@H](O)[C@@H](O[C@H]%10[C@H](O)[C@@H](O)[C@@H](O[C@H]1[C@H](O)[C@H]2O)O[C@@H]%10CO)O[C@@H]9CO)O[C@@H]8CO)O[C@@H]7CO)O[C@@H]6CO)O[C@@H]5CO)O[C@@H]4CO)O[C@@H]3CO [δ-cyclodextrin], the “water solubility (at 25° C., g/100 mL)” value [5] is listed as 8.19 g/100 mL.
